Experiments:
ME/CFS patients [1] = details: Patient 2; open-label trial, cyclophosphamide intravenous infusions
ME/CFS patients [2] = details: cited from earlier work; for effect on ME/CFS symptoms: patients with longstanding ME/CFS given the drug for an acquired cancer
lupus nephritis in mice = details: Bortezomib plus B-cell depletion; cited from earlier work
ME/CFS patients [3] = assay: Bortezomib treatment of ME/CFS patients (case reports Patient 1, Patient 2); type: in vivo, human; details: for clinical effect on ME/CFS symptoms: PEM, pain
Description: They received Bortezomib subcutaneously says 1, 4, 11 and 15. […] They therefore received the third course of Bortezomib as an intravenous infusion with the same dose 1.3 mg/m^2, given at days 1, 4, 8 and 11.
They had increasing energy, increased exertion and was able to perform many new tasks. […] The self-reported symptom improvement was supported by measured steps per 24 hours (Fitbit armband) and in the response period we registered more than 10.000 steps per day.
The effect lasted for approximately 7 weeks before they started experiencing gradual relapse of the ME/CFS symptoms.
[…] Fitbit armband verified […] description of improvement, with increasing steps per 24 hours from mean 1500-2000 before intervention to approximately 4000, up to 7000 on single days, after response.

[4] = tested on: patients with N-Methyl-D-Aspartate (NMDA) receptor antibody-mediated encephalitis; details: refractory to first and second line therapy; cited from earlier work

Row | SMILES | duration of clinical response before gradual relapse (ME/CFS patients [1]) | effect on ME/CFS symptoms (ME/CFS patients [2]) | share of patients with significant clinical improvements of long duration (ME/CFS patients [2]; phase II trial, 6 courses of Cyclophosphamide) | outcome (lupus nephritis in mice) | duration of effect before gradual relapse (ME/CFS patients [3]; Patient 1) | measured steps per 24 hours (Fitbit armband) in the response period (ME/CFS patients [3]; Patient 1) | clinical effect on ME/CFS symptoms (ME/CFS patients [3]; Patient 1, cognitive disturbances, sleep problems) | side effects (ME/CFS patients [3]; Patient 1, first course 1.0 mg/m^2 subcutaneously) | side effects (ME/CFS patients [3]; Patient 1, second course 1.3 mg/m^2 subcutaneously) | side effects (ME/CFS patients [3]; Patient 1, third course 1.3 mg/m^2 intravenous infusion) | start of gradual improvement of ME/CFS symptoms, from start of bortezomib treatment (ME/CFS patients [3]; Patient 1, three courses Bortezomib 1.0-1.3 mg/m^2 sc/iv) | response lasting until time after the last Bortezomib infusion (ME/CFS patients [3]; Patient 2) | steps per 24 hours on single days after response (ME/CFS patients [3]; Patient 2) | side effects (ME/CFS patients [3]; Patient 2, after the last (sixth) course) | start of improvement of ME/CFS symptoms, after start of Bortezomib intervention (ME/CFS patients [3]; Patient 2, courses 1.0 then 1.3 mg/m^2) | clinical effect on ME/CFS symptoms (ME/CFS patients [3]; Patient 2, energy, dizziness, cognitive function) | side effects (ME/CFS patients [3]; Patient 2, first course 1.0 mg/m^2 subcutaneously) | total duration of response before gradual relapse (ME/CFS patients [3]; Patient 2, in total 6 courses) | steps per 24 hours (Fitbit armband) after response (ME/CFS patients [3]; Patient 2, mean 1500-2000 before intervention) | clinical outcome [4]
1 | O=P1(N(CCCl)CCCl)NCCCO1 (stereo not drawn) [Cyclophosphamide] | almost a year | significant symptomatic improvement | more than half the patients | – | – | – | – | – | – | – | – | – | – | – | – | – | – | – | – | –
2 | CC(C)C[C@H](NC(=O)[C@H](Cc1ccccc1)NC(=O)c1cnccn1)B(O)O [Bortezomib] | – | – | – | sustained plasma cell depletion and amelioration of lupus nephritis | approximately 7 weeks | more than 10.000 steps per day | gradual improvement of all their ME/CFS symptoms | no bortezomib-associated side effects except an exanthema around the injection site | increasing local reaction at the injection site and with some transient fatigue and pain in the muscles | transient exanthema along the vein on the arm | 10 week | 6 weeks | up to 7000 steps per 24 hours | discomfort in their lower extremities at the legs and feet, and some constipation | 7 weeks | gradual and consistent improvement of all their ME/CS symptoms | minimal skin reaction at the injection site and no other side effects | 16 weeks | approximately 4000 steps per 24 hours | clinical improvement and reduction of pathologic autoantibodies
3 | O=P1(NCCCl)OCCCN1CCCl (stereo not drawn) [Ifosfamide] | – | significant symptomatic improvement | – | – | – | – | – | – | – | – | – | – | – | – | – | – | – | – | – | –

From US12599620B2, “Method for the treatment of chronic fatigue syndrome using an inhibitory or cytotoxic agent against plasma cells” (Vestlandets Innovasjonsselskap AS, priority 2019, dated 2026)
